According to patent publication US20070190628A1, “Yeast food composition for fuel ethanol production” (priority 2006, published 2007):

System: active dry yeast “z”
Assay: Individual nutritive elements added to normal gravity corn mash: fermentation rate and viable cell numbers
Assay type: cell-based, Saccharomyces cerevisiae
Description: Normal gravity corn mash was prepared using ground #2 yellow dent corn obtained from Commercial Alcohols Inc. (275 Bloomfield Road, Chatham, Ontario, Canada N7M 5J5). […] One part by weight of ground corn was dispersed into three parts of 50° C., sterile dH2O containing 1 mM CaCl2.2H2O. To minimize the development of excessive viscosity during gelatinization, 1.25 mL of high temperature (HT-2X) α-amylase such as was supplied by Alltech Inc. in Nicholasville, Ky., USA (HT-2X α-amylase is no longer available from Alltech), was added per litre of mash as the ground corn was dispersed. It should be noted that if Ca-independent alpha amylases are used such as Termamyl® SC supplied by Novozymes North America in Franklinton, N.C., USA, then the 1 mM CaCl2.2H2O is not required. Following the addition of the ground corn and a five-minute mixing period to produce a homogenous mixture, the temperature was increased until the mash reached 94° C. where it was held at this temperature for 60 min with continued stirring. The temperature of the gelatinized starch was then reduced to 80° C. and liquefied by a second dose of HT-2X αx-amylase (1.25 mL/L) with continued stirring for 30 min. Sterile Celstir® (Wheaton Scientific, Millville, N.J.) fermentor vessels were filled with 1 L aliquots of this mash. To each fermentor vessel, filter-sterilized (25 mm, 0.2 μm Acrodisc® syringe filter, Pall Corporation, Ann Arbor, Mich.) urea (Fisher Scientific, Co., NJ), was added to achieve a final concentration of 8 mM. Cold-sterilization of the mash was assured by the addition of 100 μL of diethyl pyrocarbonate (DEPC, Sigma Chemical Co.) per litre of mash mixing the mash mechanically (IKA-Labortechnik, Staufen, Germany) for 5-10 min followed by cooling the fermentor vessels at 4° C. cold room for ˜72 hrs. The fermentor vessels were then removed from the cold room, connected to 30° C. water bath circulators and mixed. Glucoamylase in the form of Allcholase II 400 supplied by Alltech Inc. was then added (1.5 mL/L mash) 30 min prior to yeast inoculation to initiate saccharification of the dextrins formed during gelatinization and liquefaction (it should be noted that Allcholase II 400 is no longer available and any glucoamylase may be used). The mash thus prepared contained 19-20 g of dissolved solids/100 mL of mash as determined by a digital density meter analyzer (model DMA-45, Anton Paar KG, Graz, Austria) maintained at 20° C.
Eleven grams of a commercially available active dry yeast, designated as “z”, were rehydrated by dispersal in 99 mL of preheated 38° C., 0.1% (w/v) sterile water and incubation for 20 min with periodic shaking in a 38° C. water bath. Fermentor vessels containing normal density corn mash were prepared as described above and inoculated with sufficient active yeast to provide an initial viable cell count of 1×10^7 cells per mL mash. The optimal fermentation temperature for the active dry yeast “z” was determined by conducting fermentations at 30°, 34°, 36°, 38°, and 40° C.
The effects of individual elements on yeast cell biomass production and fermentation in a fermentation feedstock were assessed by separately supplementing of corn mash with nitrogen, phosphorus, magnesium, sulphur and zinc. Nitrogen effects were assessed in corn mashes by the additions of urea to provide final concentrations in the mash of […]. Phosphorus effects were assessed in corn mashes amended with 16 mM urea, by the additions of (NH4)2HPO4 (BDH Chemicals Inc, Toronto, Ont., MW: 132.06) to provide final concentrations of 0, 0.1, 0.2, 0.4, 0.6, and 0.8 g of (NH4)2HPO4/L of mash. Magnesium effects were assessed in corn mashes amended with 16 mM urea, by the additions of MgSO4.7H2O (BDH Chemicals Inc., MW. 246.48) to provide final concentrations of 0, 0.025, 0.049, 0.074, 0.099, 0.148, 0.197 g of MgSO4.7H2O/L of mash. […]

Compound: NC(N)=O [urea]
- highest yeast cell counts (corn mash with 8 mM and 16 mM urea): 3.3×10^8 CFU/mL
- increase of cell numbers (corn mash with 8 mM and 16 mM urea, versus no urea): 50%
- increase of the rate of dissolved solids utilization (urea 16-32 mM in corn mash, 30° C.): approximately 2 fold
- urea supplementation rate at which the maximum fermentation rate was observed (urea tested up to 32 mM): 16 mM
